Test results: patent US4605744A, “Imidazole derivatives” (Hoffmann-La Roche Inc., priority 1985, dated 1986)
Structures can show the parent of a compound that is named as a salt. Where two headings read alike, the source gives them in different places.

What was measured:
Type in all cases: cell-based
[1] = tested on: E. coli 257; test: In vitro antibacterial activity (MIC, Mueller-Hinton broth); conditions: Escherichia coli, 257, E. coli 257; read-out: MIC
Summary of the method: (§1)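 Twofold-style dilution series (128 to 0.008 μg/ml) made in Mueller-Hinton broth, dispensed, then inoculated with 1.5 μl of a 10^-2 overnight-culture dilution. Plates sealed, held overnight at 37° C, inspected with a viewer.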

[2] = tested on: C. diversus CDC 1663-72; test: In vitro antibacterial activity (MIC); conditions: Citrobacter koseri, CDC166372; C. diversus CDC 1663-72; read-out: MIC
Summary of the method: as §1

[3] = tested on: C. freundii 8ASM; test: In vitro antibacterial activity (MIC); conditions: Citrobacter freundii, 8ASM, C. freundii 8ASM; read-out: MIC
Summary of the method: as §1

[4] = tested on: C. freundii CDC6; test: In vitro antibacterial activity (MIC); conditions: Citrobacter freundii, CDC6, C. freundii CDC6; read-out: MIC
Summary of the method: as §1

[5] = tested on: E. aerogenes 503-478; test: In vitro antibacterial activity (MIC); conditions: Klebsiella aerogenes, 503478, E. aerogenes 503-478; read-out: MIC
Summary of the method: as §1

[6] = tested on: E. aerogenes 83; test: In vitro antibacterial activity (MIC); conditions: Klebsiella aerogenes, 83, E. aerogenes 83; read-out: MIC
Summary of the method: as §1

[7] = tested on: E. cloacae 214; test: In vitro antibacterial activity (MIC); conditions: Enterobacter cloacae, 214, E. cloacae 214; read-out: MIC
Summary of the method: as §1

[8] = tested on: E. cloacae 24; test: In vitro antibacterial activity (MIC); conditions: Enterobacter cloacae, 24, E. cloacae 24; read-out: MIC
Summary of the method: as §1

[9] = tested on: E. cloacae 5699; test: In vitro antibacterial activity (MIC); conditions: Enterobacter cloacae, 5699, E. cloacae 5699; read-out: MIC
Summary of the method: as §1

[10] = tested on: E. cloacae 9295; test: In vitro antibacterial activity (MIC); conditions: Enterobacter cloacae, 9295, E. cloacae 9295; read-out: MIC
Summary of the method: as §1

[11] = tested on: E. cloacae 9570A; test: In vitro antibacterial activity (MIC); conditions: Enterobacter cloacae, read-out: MIC
Summary of the method: as §1

[12] = tested on: E. coli 387-1; test: In vitro antibacterial activity (MIC); conditions: Escherichia coli, 3871, E. coli 387-1; read-out: MIC
Summary of the method: as §1

[13] = tested on: E. coli 48; test: In vitro antibacterial activity (MIC); conditions: Escherichia coli, 48, E. coli 48; read-out: MIC
Summary of the method: as §1

[14] = tested on: E. coli 4; test: In vitro antibacterial activity (MIC); conditions: Escherichia coli, 4, E. coli 4; read-out: MIC
Summary of the method: as §1

[15] = tested on: E. coli 5152; test: In vitro antibacterial activity (MIC); conditions: Escherichia coli, 5152, E. coli 5152; read-out: MIC
Summary of the method: as §1

[16] = tested on: K. pneumoniae 35; test: In vitro antibacterial activity (MIC); conditions: Klebsiella pneumoniae; K. pneumoniae 35; read-out: MIC
Summary of the method: as §1

[17] = tested on: K. pneumoniae 4964; test: In vitro antibacterial activity (MIC); conditions: Klebsiella pneumoniae, 4964, K. pneumoniae 4964; read-out: MIC
Summary of the method: as §1

[18] = tested on: K. pneumoniae 503-994; test: In vitro antibacterial activity (MIC); conditions: Klebsiella pneumoniae, 503994, K. pneumoniae 503-994; read-out: MIC
Summary of the method: as §1

[19] = tested on: K. pneumoniae 5096; test: In vitro antibacterial activity (MIC); conditions: Klebsiella pneumoniae; K. pneumoniae 5096; read-out: MIC
Summary of the method: as §1

[20] = tested on: K. pneumoniae HE7; test: In vitro antibacterial activity (MIC); conditions: Klebsiella pneumoniae; K. pneumoniae HE7; read-out: MIC
Summary of the method: as §1

[21] = tested on: P. aeruginosa 503-56; test: In vitro antibacterial activity (MIC); conditions: Pseudomonas aeruginosa, 50356, P. aeruginosa 503-56; read-out: MIC
Summary of the method: as §1

[22] = tested on: P. aeruginosa 5712; test: In vitro antibacterial activity (MIC); conditions: Pseudomonas aeruginosa; P. aeruginosa 5712; read-out: MIC
Summary of the method: as §1

[23] = tested on: P. aeruginosa 6148B; test: In vitro antibacterial activity (MIC); conditions: Pseudomonas aeruginosa, read-out: MIC
Summary of the method: as §1

[24] = tested on: P. aeruginosa 8710; test: In vitro antibacterial activity (MIC); conditions: Pseudomonas aeruginosa; P. aeruginosa 8710; read-out: MIC
Summary of the method: as §1

[25] = tested on: P. aeruginosa B; test: In vitro antibacterial activity (MIC); conditions: Pseudomonas aeruginosa, read-out: MIC
Summary of the method: as §1

[26] = tested on: P. aeruginosa POW 151; test: In vitro antibacterial activity (MIC); conditions: Pseudomonas aeruginosa, POW151
Summary of the method: as §1

[27] = tested on: P. mirabilis 2; test: In vitro antibacterial activity (MIC); conditions: Proteus mirabilis, 2, P. mirabilis 2; read-out: MIC
Summary of the method: as §1

[28] = tested on: P. mirabilis 503-1136; test: In vitro antibacterial activity (MIC); conditions: Proteus mirabilis, 5031136, P. mirabilis 503-1136; read-out: MIC
Summary of the method: as §1

[29] = tested on: P. vulgaris 101; test: In vitro antibacterial activity (MIC); conditions: Proteus vulgaris, 101, P. vulgaris 101; read-out: MIC
Summary of the method: as §1

[30] = tested on: P. vulgaris ATCC 6380; test: In vitro antibacterial activity (MIC); conditions: Proteus vulgaris, ATCC6380, P. vulgaris ATCC 6380; read-out: MIC
Summary of the method: as §1

[31] = tested on: S. aureus Giorgio; test: In vitro antibacterial activity (MIC); conditions: Staphylococcus aureus, S. aureus Giorgio; read-out: MIC
Summary of the method: as §1

[32] = tested on: S. aureus Smith; test: In vitro antibacterial activity (MIC); conditions: Staphylococcus aureus, S. aureus Smith; read-out: MIC
Summary of the method: as §1

[33] = tested on: S. marcescens 5805; test: In vitro antibacterial activity (MIC); conditions: Serratia marcescens, 5805, S. marcescens 5805; read-out: MIC
Summary of the method: as §1

[34] = tested on: S. marcescens S147; test: In vitro antibacterial activity (MIC); conditions: Serratia marcescens; S. marcescens S147; read-out: MIC
Summary of the method: as §1

[35] = tested on: S. marcescens S1; test: In vitro antibacterial activity (MIC); conditions: Serratia marcescens, S1, S. marcescens S1; read-out: MIC
Summary of the method: as §1

[36] = tested on: S. marcescens S3; test: In vitro antibacterial activity (MIC); conditions: Serratia marcescens; S. marcescens S3; read-out: MIC
Summary of the method: as §1

[37] = tested on: S. marcescens S4; test: In vitro antibacterial activity (MIC); conditions: Serratia marcescens, S4, S. marcescens S4; read-out: MIC
Summary of the method: as §1

[38] = tested on: S. marcescens S714; test: In vitro antibacterial activity (MIC); conditions: Serratia marcescens, S714, S. marcescens S714; read-out: MIC
Summary of the method: as §1

[39] = tested on: S. pneumoniae 6301; test: In vitro antibacterial activity (MIC); conditions: Streptococcus pneumoniae, 6301, S. pneumoniae 6301; read-out: MIC
Summary of the method: as §1

[40] = tested on: S. pneumoniae 6302; test: In vitro antibacterial activity (MIC); conditions: Streptococcus pneumoniae, 6302, S. pneumoniae 6302; read-out: MIC
Summary of the method: as §1

[41] = tested on: S. pneumoniae SC; test: In vitro antibacterial activity (MIC); conditions: Streptococcus pneumoniae, read-out: MIC
Summary of the method: as §1

[42] = tested on: S. pyogenes 4; test: In vitro antibacterial activity (MIC); conditions: Streptococcus pyogenes, 4, S. pyogenes 4; read-out: MIC
Summary of the method: as §1

[43] = tested on: S. pyogenes 503-782; test: In vitro antibacterial activity (MIC); conditions: Streptococcus pyogenes, 503782; S. pyogenes 503-782; read-out: MIC
Summary of the method: as §1

[44] = tested on: S. schottmuelleri; test: In vitro antibacterial activity (MIC)
Summary of the method: as §1

[45] = tested on: S. typhi P58A; test: In vitro antibacterial activity (MIC); conditions: Salmonella enterica, TYPHI
Summary of the method: as §1

For `Cc1nc(C)n(CCCC2CCN(C=N[C@@H]3C(=O)N4[C@@H]3SC(C)(C)[C@@H]4C(=O)O)CC2)c1C` [E, [2S-(2alpha,5alpha,6beta)]-6[[4-[3-[(2,4,5-trimethyl-1H-imidazol-1-yl)propyl]-1-piperidinyl]methylene]amino]-3,3-dimethyl-7-oxo-4-thia-1-azabicyclo[3.2.0]heptane-2-carboxylic acid hydrate hydrochloride], the MIC [1] was 0.062 µg/mL, the MIC [2] was 0.062 µg/mL and the MIC [3] was < 0.008 µg/mL. For the same molecule, the MIC [4] was 0.125 µg/mL, the MIC [5] was 1 µg/mL and the MIC [6] was 0.5 µg/mL. It also gave an MIC [7] of 0.5 µg/mL, an MIC [8] of 0.5 µg/mL and an MIC [9] of 0.125 µg/mL. For the same molecule, the MIC [10] was 0.25 µg/mL, the MIC [11] was 0.125 µg/mL and the MIC [12] was 4 µg/mL. It also gave an MIC [13] of 0.062 µg/mL, an MIC [14] of 4 µg/mL and an MIC [15] of 8 µg/mL. The MIC [16] was 0.125 µg/mL, the MIC [17] was 1 µg/mL and the MIC [18] was 0.062 µg/mL. The MIC [19] was > 128 µg/mL, the MIC [20] was > 128 µg/mL and the MIC [21] was > 128 µg/mL. The MIC [22] was > 128 µg/mL, the MIC [23] was > 128 µg/mL and the MIC [24] was > 128 µg/mL. The MIC [25] was > 128 µg/mL, the MIC [26] was > 128 µg/mL and the MIC [27] was 0.5 µg/mL. For the same molecule, the MIC [28] was 4 µg/mL, the MIC [29] was 4 µg/mL and the MIC [30] was 0.062 µg/mL. The MIC [31] was 8 µg/mL, the MIC [32] was 8 µg/mL and the MIC [33] was 0.5 µg/mL. For the same molecule, the MIC [34] was 0.5 µg/mL, the MIC [35] was 1 µg/mL and the MIC [36] was 0.25 µg/mL. For the same molecule, the MIC [37] was 0.5 µg/mL, the MIC [38] was 1 µg/mL and the MIC [39] was 1 µg/mL. The MIC [40] was 1 µg/mL, the MIC [41] was 0.5 µg/mL and the MIC [42] was 0.5 µg/mL. It also gave an MIC [43] of 128 µg/mL, an MIC ([44]; read-out: MIC) of 0.062 µg/mL and an MIC [45] of 0.062 µg/mL.

In the case of `CC1(C)S[C@@H]2[C@H](N=CN3CCC(Cn4ccnc4CN)CC3)C(=O)N2[C@H]1C(=O)O` [J, [2S-(2alpha,5alpha,6beta)]-6-[[[4-[[2-(aminomethyl)-1H-imidazol-1-yl]methyl]-1-piperidinyl]methylene]amino]-3,3-dimethyl-7-oxo-4-thia-1-azabicyclo[3.2.0]heptane-2-carboxylic acid hydrochloride], the MIC [1] is reported as 0.125 µg/mL, the MIC [2] is reported as 0.031 µg/mL and the MIC [3] is reported as 0.125 µg/mL. The MIC [4] was 64 µg/mL, the MIC [5] was 8 µg/mL and the MIC [6] was 1 µg/mL. It also gave an MIC [7] of 1 µg/mL, an MIC [8] of 0.5 µg/mL and an MIC [9] of 4 µg/mL. The MIC [10] was 4 µg/mL, the MIC [11] was 0.5 µg/mL and the MIC [12] was 0.125 µg/mL. For the same molecule, the MIC [13] was 8 µg/mL, the MIC [14] was 0.062 µg/mL and the MIC [15] was 16 µg/mL. The MIC [16] was 0.5 µg/mL, the MIC [17] was 0.5 µg/mL and the MIC [18] was 8 µg/mL. The MIC [19] was 128 µg/mL, the MIC [20] was > 128 µg/mL and the MIC [21] was 64 µg/mL. The MIC [22] was > 128 µg/mL, the MIC [23] was 128 µg/mL and the MIC [24] was > 128 µg/mL. For the same molecule, the MIC [25] was 0.25 µg/mL, the MIC [26] was > 128 µg/mL and the MIC [27] was 8 µg/mL. The MIC [28] was 8 µg/mL, the MIC [29] was 8 µg/mL and the MIC [30] was 0.125 µg/mL. The MIC [31] was 8 µg/mL, the MIC [32] was 8 µg/mL and the MIC [33] was 1 µg/mL. For the same molecule, the MIC [34] was 0.25 µg/mL, the MIC [35] was 0.5 µg/mL and the MIC [36] was 0.25 µg/mL. For the same molecule, the MIC [37] was 1 µg/mL, the MIC [38] was 0.5 µg/mL and the MIC [39] was 1 µg/mL. For the same molecule, the MIC [40] was 4 µg/mL, the MIC [41] was 4 µg/mL and the MIC [42] was 4 µg/mL. For the same molecule, the MIC [43] was 128 µg/mL, the MIC [44] was 0.062 µg/mL and the MIC [45] was 8 µg/mL.
